The source of these data is patent US20190010461A1, “HUMAN PLURIPOTENT STEM CELL-BASED SCREENING FOR SMOOTH MUSCLE CELL DIFFERENTIATION AND DISEASE” (Wisconsin Alumni Research Foundation, priority 2017, published 2019).

In one assay the test system is MYH11-Tom+ cells. Nature of the assay: Flow cytometric analysis of MYH11-Tom+ cells in SMC differentiation. Format: cell-based, human. The following applies: RepSox 25 μM, day 12-24. How it is done: Data are represented as mean±standard deviation (SD). […] Scale bar=1 mm. […] Scale bar=50 μm. […] Data are represented as mean±SD. Student's t-test, *: P<0.05, n=3.
FIGS. 7A-7G show the target of RepSox. […] Cells were treated with RepSox (25 μM) or SiRNA. […] Cells were treated with RepSox (25 μM) or SiRNA. […] During the smooth muscle cells differentiation, cells were treated with or without RepSox from day 10-11. […] During the smooth muscle cells differentiation, cells were treated with RepSox for 1 or 20 hours at day 12. […] Cells were treated with RepSox and non-targeting control (NT)/SiRNA at day 10. The RNA was isolated at day 14.
Optimized smooth muscle cell differentiation—Human pluripotent stem cell cells (H1) were cultured in E8 medium on a […]™-coated plate. To achieve the best differentiation results, ES cells were split using EDTA at 1:4 ratios two days before the differentiation. The cells reached 80-90% confluency two days later. At the day of the differentiation, ES cells were dissociated by ACCUTASE™ (Invitrogen) for 3-5 min at 37 ° C. The cells were plated on a […]™-coated plate at 1:4 ratios (1×10^5 cells/cm2). […] An increased CHIR99021 concentration of 3 μM decreased cell proliferation at 36 hours but increased MYH11 expression. At 36 hours, the cells were passaged and seeded on a new […]™-coated plate (1.6×10^4 cells/cm2). The low cell density is critical for the differentiation. A cell density of 1.0-4.0×10^4 cells/cm2 for different cell lines can be tested, such that 100% cell confluence will be achieved at day 6, which gives rise to the best differentiation efficiency. The cells were treated with E6T medium (E8 medium minus FGF2 but still containing 1.7 ng/ml TGF-β1) for 18 hours to induce the transient and medium level expression of MEOX1. E5F medium (E8 medium minus insulin and TGF-β1, but still containing 100 ng/ml FGF2) was used to suppress MEOX1 expression for another 5 days (days 3-8). Next, the cells were treated with E6FVR medium (E6 medium with 100 ng/ml FGF2, 50 ng/ml VEGFA, and 5 μM RESV, a NOTCH agonist) to induce SMC progenitors from day 8-12. E6R (E6 medium+5 μM RESV) medium supplemented with RepSox (25 μM), was then used to further mature SMCs from day 12 to 24. Cells were split (1×10^5 cells/cm2) at day 16 and further differentiated until day 24. The cells can be cryopreserved at day 16 or day 24. For P-SMCs, T-SMCs, and PT-SMCs, RepSox was replaced by PDGF-BB (10 ng/ml), TGF-β1 (1.7 ng/ml), or combination of PDGF-BB and TGF-β1, respectively, from day 12 to 24. From day 0-4: medium was changed every day. From day 2-24: medium was changed every other day. For day 1 and day 8-24, 1.5×volumes of medium, compared to the normal volume used in the well, were used. […]

The next assay deals with intimal hyperplasia. The text has this:
FIG. 5A depicts the rat balloon injury experiment. H&E staining is shown. Arrowheads indicate the intima. Scale bar=200 μm. […] Scale bar=100 Neointima is highlighted. Red arrows indicate the region with high SMA expression. Yellow arrows indicate the region with low SMA expression. […] Red arrows indicate the region with high MYH11 expression. Yellow arrows indicate the region with low MYH11 expression. […] Red arrows indicate the region with high SM22α expression. Yellow arrows indicate the region with low SM22α expression. […] The “% of high expression”=ratio of “area of high expression”! “total area of intima and media”. Data are represented as mean±SD. […] Scale bar=100 μm. Neointima is highlighted.
Rat carotid artery balloon injury model and periadventitial delivery—This animal study was conducted with approval from the UW-Madison Department of Surgery Animal Care and Use Committee. Briefly, 2 mg (2 animals/group) or 10 mg (3 animals/group) of RepSox (or DMSO) dissolved in Regel (Tri-block gel) (Regel tri-block gel is described in Chen et al. “Unimolecular Micelle-Based Hybrid System for Perivascular Drug Delivery Produces Long-Term Efficacy for Neointima Attenuation in Rats,” Biomacromolecules, 2017 Jun. 14. doi: 10.1021/acs.biomac.7b00617) was applied to the outside of the injured artery segment immediately after balloon injury of the rat carotid artery. Two weeks post-surgery, arteries were collected and sectioned. The ratio of intima area versus media area and lumen area were measured by Image J.
We next examined the function of RepSox in a rat intimal hyperplasia model. In order to reduce any side effect induced by systematic drug delivery, RepSox or DMSO was dissolved in gel and then applied to the outside of the injured artery segment immediately after balloon injury of the rat carotid artery (Shi et al., 2014). Carotid arteries were collected and sectioned 14 days after surgery. […] To test the effect of RepSox, we performed qPCR analysis.

For assay [1], the system named is primary human aortic SMCs (AoSMCs). The text has this: Scale bar=500 μm. […] Scale bar=100 μm. […] Data are represented as mean±SD.

`Cc1cccc(-c2n[nH]cc2-c2ccc3ncccc3n2)n1` [RepSox, RepSox (SJN 2511)]: the “efficiency of SMC differentiation (MYH11-tdTomato+)” value with MYH11-Tom+ cells is reported as > 95%. Further, in the assay with intimal hyperplasia (2 mg or 10 mg RepSox in gel periadventitially, 14 days after surgery, DMSO control 1.5), the intima/media ratio came to 0.5. Moreover, in the assay with intimal hyperplasia (injured rat carotid artery, versus DMSO), the “endothelia cell marker expression (qPCR)” value is recorded as “increased”. Besides, in the assay on intimal hyperplasia (versus DMSO), the “apoptosis in intima (TUNEL)” value is on record as “increased”; the “expression of contractile proteins SMA, MYH11 and SM22α” value is “significantly increased”; the “proliferation in intima and media layer (immunostaining)” value is recorded as “decreased proliferation in intima but not media layer”. The “contractile gene expression of AoSMCs” value in assay [1] (100 μM RepSox for three days versus DMSO) is given as “increase”. Moreover, in assay [1] (100 μM RepSox for two days versus DMSO), the “proliferation rate of AoSMCs” value is reported as “reduced”. Also, the “contraction ability of AoSMCs” value in assay [1] (100 μM RepSox for two days, then 100 μM carbachol) was “without affecting”. Besides, the “cell migration rate of AoSMCs” value in assay [1] (100 μM RepSox versus DMSO) is “reduced”.
